In patent US20250353891A1 (MEDIMMUNE LIMITED, priority 2022, published 2025):
Like-named read-outs stand apart in the source and are kept apart here. Starred links: 1 amine or outer side, 2 acyl side, 3 side chain; linkers in the order of their positions; H or OH if unused. Non-standard residues stand in square brackets, D forms with d. Residues, ends and D or L forms follow the SMILES beside them. Groups on a side chain read outwards from the residue. *: point of attachment. C18 diacid = O=C(O)CCCCCCCCCCCCCCCCC(=O)*; γGlu = O=C(O)[C@H](CCC(=O)[*:2])N[*:1]; Stearoyl = CCCCCCCCCCCCCCCCCC(=O)*; Palmitoyl = CCCCCCCCCCCCCCCC(=O)*; αMeF = C[C@](N)(Cc1ccccc1)C(=O)O; PEG2 = NCCOCCOCCC(=O)O; AEEA = NCCOCCOCC(=O)O; Aib = CC(C)(N)C(=O)O

Legend:
[1] = biological target: human glucagon receptor (hGCGR) (Homo sapiens, UniProt P47871); assay: cAMP production (HTRF) in CHO cells expressing hGCGR; format: cell-based; set-up: expressed in transfected cells; conditions: cAMP in CHO hGCGR cells, geometric mean, read-out: hGluc-R EC50
Sequence of human glucagon receptor (hGCGR) (P47871 26-477): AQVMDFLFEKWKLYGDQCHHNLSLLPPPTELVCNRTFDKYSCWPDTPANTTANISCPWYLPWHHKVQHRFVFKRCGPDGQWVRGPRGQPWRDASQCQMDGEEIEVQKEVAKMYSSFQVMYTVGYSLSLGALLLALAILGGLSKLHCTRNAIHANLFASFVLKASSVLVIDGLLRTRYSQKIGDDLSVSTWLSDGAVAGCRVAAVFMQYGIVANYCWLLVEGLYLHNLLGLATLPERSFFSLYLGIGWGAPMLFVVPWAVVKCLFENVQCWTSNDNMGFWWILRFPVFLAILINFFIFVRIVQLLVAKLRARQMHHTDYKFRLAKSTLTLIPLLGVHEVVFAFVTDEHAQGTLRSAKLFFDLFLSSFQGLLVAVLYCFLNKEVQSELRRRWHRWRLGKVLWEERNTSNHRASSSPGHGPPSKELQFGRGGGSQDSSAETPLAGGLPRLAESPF
How it was run: (§1)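 Potency values represent EC50 from 4-parameter logistic curves of HTRF % Delta F signal. Receptor-expressing CHO cells (hGCGR 2×10^5 cells/mL, hGLP-1R 1×10^5 cells/mL) were exposed for 30 min at room temperature before two-step cAMP detection.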

[2] = Mouse acute food intake study; format: in vivo; conditions: male C57Bl/6 mice, s.c., dose 10 nmol/kg, cumulative food intake at 24 hr vs vehicle
Protocol: Male C57Bl/6 mice obtained from Jackson Laboratories or Charles River at 8-9 weeks of age and were housed one per cage in BioDaq (Research Diets) cages. Mice were placed on Alpha Dri bedding, standard chow diet (Envigo, 2018) and given water pouches. Mice were allowed to acclimate for 1-2 weeks. Body weight was measured to ensure appropriate acclimation. After acclimation, mice were sham dosed a minimum of 2 times prior to initiation of food intake study. On study day, mice were placed in clean cage bottoms, weighed, and fasted for 6-8 hours. Mice were sorted into groups based on average 24-hour food intake data and body weight. 1-2 hours prior to lights out, mice were dosed subcutaneously with one vehicle or test peptide dissolved in an appropriate vehicle at 5 mL/kg. Mice were left undisturbed and allowed access to food and water for 48 hours. Automated food intake was monitored in the BioDaq system was monitored during this time. Discrete food intake data was exported into MS Excel from which cumulative food intake data was generated and analyzed.

[3] = biological target: human GLP-1 receptor (hGLP-1R) (Homo sapiens, UniProt P43220); assay: cAMP production (HTRF) in CHO cells expressing hGLP-1R; format: cell-based; set-up: expressed in transfected cells; conditions: for % Relative Potency Ratio: % GLP-1R activity relative to GLP-1 / % GlucR activity relative to glucagon; for EC50: Table 7, peptides modified at position 20, cAMP in CHO hGLP-1R cells, geometric mean, read-out: hGLP-1R EC50
Sequence of human GLP-1 receptor (hGLP-1R) (P43220 24-463): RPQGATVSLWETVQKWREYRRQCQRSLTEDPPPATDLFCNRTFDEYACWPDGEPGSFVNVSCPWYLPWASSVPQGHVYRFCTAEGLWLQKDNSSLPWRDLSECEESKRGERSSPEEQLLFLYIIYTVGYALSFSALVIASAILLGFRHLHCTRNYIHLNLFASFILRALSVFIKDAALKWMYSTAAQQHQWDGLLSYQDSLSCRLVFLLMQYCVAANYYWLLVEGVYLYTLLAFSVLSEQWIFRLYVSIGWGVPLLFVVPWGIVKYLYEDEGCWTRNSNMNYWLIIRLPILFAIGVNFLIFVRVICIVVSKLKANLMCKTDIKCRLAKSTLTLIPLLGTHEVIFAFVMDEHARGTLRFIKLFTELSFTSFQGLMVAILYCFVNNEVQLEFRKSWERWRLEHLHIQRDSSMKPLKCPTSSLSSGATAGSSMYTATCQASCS
How it was run: as §1

[4] = Table 6, peptides modified at position 17
[5] = Table 7, peptides modified at position 20

EC50 [1, 4] | % Relative Potency Ratio ([3]; Table 6) | EC50 [1, 5] | EC50 [3] | % Relative Potency Ratio ([3]; Table 7) | Compound | 24 hr % Vehicle Food Intake [2]
0.022 nM | 157.9 | – | – | – | CCCCCCCCCCCCCCCC(=O)N[C@@H](CCC(=O)N[C@@H](CCC(=O)NCCOCCOCCC(=O)NCCOCCOCCC(=O)NCCCC[C@H](NC(=O)[C@H](CO)NC(=O)[C@H](CC(=O)O)NC(=O)[C@H](CC(C)C)NC(=O)[C@](C)(Cc1ccccc1)NC(=O)[C@H](CCCCN)NC(=O)[C@H](CO)NC(=O)[C@@H](NC(=O)[C@H](CC(=O)O)NC(=O)[C@H](CO)NC(=O)[C@@H](NC(=O)[C@](C)(Cc1ccccc1)NC(=O)[C@H](CO)NC(=O)CNC(=O)[C@H](CCC(N)=O)NC(=O)C(C)(C)NC(=O)[C@@H](N)Cc1c[nH]cn1)[C@@H](C)O)C(C)C)C(=O)N[C@@H](C)C(=O)N[C@@H](C)C(=O)N[C@@H](CCC(N)=O)C(=O)N[C@@H](CC(=O)O)C(=O)N[C@@](C)(Cc1ccccc1)C(=O)N[C@H](C(=O)N[C@@H](CCC(N)=O)C(=O)NC(C)(C)C(=O)N[C@H](C(=O)N[C@@H](C)C(=O)N[C@@H](CC(N)=O)C(N)=O)[C@@H](C)CC)C(C)C)C(=O)O)C(=O)O [Peptide 73] (H-H[Aib]QGS[αMeF]TSDVSK[αMeF]LDSK([PEG2-PEG2-γGlu-γGlu-Palmitoyl])AAQD[αMeF]VQ[Aib]IAN-NH2; N-terminus assumed) | 63.4%
0.0265 nM | 227.0 | – | – | – | CCCCCCCCCCCCCCCCCC(=O)N[C@@H](CCC(=O)N[C@@H](CCC(=O)NCCOCCOCCC(=O)NCCOCCOCCC(=O)NCCCC[C@H](NC(=O)[C@H](CO)NC(=O)[C@H](CC(=O)O)NC(=O)[C@H](CC(C)C)NC(=O)C(C)(C)NC(=O)[C@H](CCCCN)NC(=O)[C@H](CO)NC(=O)[C@@H](NC(=O)[C@H](CC(=O)O)NC(=O)[C@H](CO)NC(=O)[C@@H](NC(=O)[C@](C)(Cc1ccccc1)NC(=O)[C@H](CO)NC(=O)CNC(=O)[C@H](CCC(N)=O)NC(=O)C(C)(C)NC(=O)[C@@H](N)Cc1c[nH]cn1)[C@@H](C)O)C(C)C)C(=O)N[C@@H](CCCNC(=N)N)C(=O)N[C@@H](C)C(=O)N[C@@H](CCC(N)=O)C(=O)N[C@@H](CC(=O)O)C(=O)N[C@@](C)(Cc1ccccc1)C(=O)N[C@H](C(=O)N[C@@H](CCC(N)=O)C(=O)NC(C)(C)C(=O)N[C@H](C(=O)N[C@@H](C)C(=O)N[C@@H](CC(N)=O)C(N)=O)[C@@H](C)CC)C(C)C)C(=O)O)C(=O)O [Peptide 102] (H-H[Aib]QGS[αMeF]TSDVSK[Aib]LDSK([PEG2-PEG2-γGlu-γGlu-Stearoyl])RAQD[αMeF]VQ[Aib]IAN-NH2; N-terminus assumed) | 81.9%

Further lines, the compound ahead of its results:

Compound | EC50 [1, 4] | % Relative Potency Ratio ([3]; Table 6) | EC50 [1, 5] | EC50 [3] | % Relative Potency Ratio ([3]; Table 7) | 24 hr % Vehicle Food Intake [2]
CCCCCCCCCCCCCCCCCC(=O)N[C@@H](CCC(=O)N[C@@H](CCC(=O)NCCOCCOCCC(=O)NCCOCCOCCC(=O)NCCCC[C@H](NC(=O)[C@H](CO)NC(=O)[C@H](CC(=O)O)NC(=O)[C@H](CC(C)C)NC(=O)C(C)(C)NC(=O)[C@H](CCCCN)NC(=O)[C@H](CO)NC(=O)[C@@H](NC(=O)[C@H](CC(=O)O)NC(=O)[C@H](CO)NC(=O)[C@@H](NC(=O)[C@](C)(Cc1ccccc1)NC(=O)[C@H](CO)NC(=O)CNC(=O)[C@H](CCC(N)=O)NC(=O)[C@H](CO)NC(=O)[C@@H](N)Cc1c[nH]cn1)[C@@H](C)O)C(C)C)C(=O)N[C@@H](C)C(=O)N[C@@H](C)C(=O)N[C@@H](CCC(N)=O)C(=O)N[C@@H](CC(=O)O)C(=O)N[C@@](C)(Cc1ccccc1)C(=O)N[C@H](C(=O)N[C@@H](CCC(N)=O)C(=O)NC(C)(C)C(=O)N[C@@H](CC(C)C)C(=O)N[C@@H](CCC(=O)O)C(=O)N[C@@H](C)C(=O)NCC(=O)NCC(N)=O)C(C)C)C(=O)O)C(=O)O [Peptide 96] (H-HSQGS[αMeF]TSDVSK[Aib]LDSK([PEG2-PEG2-γGlu-γGlu-Stearoyl])AAQD[αMeF]VQ[Aib]LEAGG-NH2; N-terminus assumed) | 0.0301 nM | 69.9 | – | – | – | 51.9%
CC[C@H](C)[C@H](NC(=O)[C@H](CO)NC(=O)[C@H](CCC(N)=O)NC(=O)[C@@H](NC(=O)[C@H](Cc1ccccc1)NC(=O)[C@H](CC(=O)O)NC(=O)[C@H](CCCCNC(=O)COCCOCCNC(=O)COCCOCCNC(=O)CC[C@H](NC(=O)CCCCCCCCCCCCCCCCC(=O)O)C(=O)O)NC(=O)[C@H](C)NC(=O)C(C)(C)NC(=O)[C@H](CCCNC(=N)N)NC(=O)[C@H](CO)NC(=O)[C@H](CC(=O)O)NC(=O)[C@H](CC(C)C)NC(=O)[C@](C)(Cc1ccccc1)NC(=O)[C@H](CCCCN)NC(=O)[C@H](CO)NC(=O)[C@@H](NC(=O)[C@H](CC(=O)O)NC(=O)[C@H](CO)NC(=O)[C@@H](NC(=O)[C@](C)(Cc1ccccc1)NC(=O)[C@H](CO)NC(=O)CNC(=O)[C@H](Cc1c[nH]cn1)NC(=O)C(C)(C)NC(=O)[C@@H](N)Cc1c[nH]cn1)[C@@H](C)O)C(C)C)C(C)C)C(=O)N[C@@H](C)C(=O)N[C@@H](CC(N)=O)C(=O)N[C@H](C(N)=O)[C@@H](C)O [Peptide 223] (H-H[Aib]HGS[αMeF]TSDVSK[αMeF]LDSR[Aib]AK([AEEA-AEEA-γGlu-C18 diacid])DFVQSIANT-NH2) | – | – | 0.104 nM | 0.0488 nM | 4.2 | 63.6%
CC[C@H](C)[C@H](NC(=O)[C@H](Cc1c[nH]c2ccccc12)NC(=O)[C@H](CCC(N)=O)NC(=O)[C@@H](NC(=O)[C@](C)(Cc1ccccc1)NC(=O)[C@H](CC(=O)O)NC(=O)[C@H](CCCCNC(=O)COCCOCCNC(=O)COCCOCCNC(=O)CC[C@H](NC(=O)CC[C@H](NC(=O)CCCCCCCCCCCCCCCCC(=O)O)C(=O)O)C(=O)O)NC(=O)[C@H](C)NC(=O)[C@H](C)NC(=O)[C@H](CCCNC(=N)N)NC(=O)[C@H](CO)NC(=O)[C@H](CC(=O)O)NC(=O)[C@H](CC(C)C)NC(=O)[C@](C)(Cc1ccccc1)NC(=O)[C@H](CCCCN)NC(=O)[C@H](CO)NC(=O)[C@@H](NC(=O)[C@H](CC(=O)O)NC(=O)[C@H](CO)NC(=O)[C@@H](NC(=O)[C@](C)(Cc1ccccc1)NC(=O)[C@H](CO)NC(=O)CNC(=O)[C@H](Cc1c[nH]cn1)NC(=O)C(C)(C)NC(=O)[C@@H](N)Cc1c[nH]cn1)[C@@H](C)O)C(C)C)C(C)C)C(=O)N[C@@H](C)C(=O)N[C@@H](CC(N)=O)C(=O)N[C@H](C(N)=O)[C@@H](C)O [Peptide 247] (H-H[Aib]HGS[αMeF]TSDVSK[αMeF]LDSRAAK([AEEA-AEEA-γGlu-γGlu-C18 diacid])D[αMeF]VQWIANT-NH2; N-terminus assumed) | – | – | 0.0511 nM | 0.0849 nM | 1.2 | 66.9%
